# In US20230339854A1, “Negative Allosteric Modulation of GluN3-Containing N-Methyl-D-Aspartate Receptors” (Emory University, priority 2020, published 2023):
# Biological target: T1, human GluN1^FA,TL/GluN3A receptors (Homo sapiens, UniProt Q8TCU5)
# T1 construct: Human GluN3A (NP_597702.2) and rat GluN3B (NP_579842.2) were synthesized and subcloned into SP6 plasmids; expressed in transfected cells; host or cells: Xenopus laevis oocytes, cRNA injection (GluN1:GluN3 1:3)
# Test: Two-electrode voltage-clamp recordings of GluN1^FA,TL/GluN3A receptors in Xenopus oocytes
# Format: cell-based
# Settings: 30 μM drug
# Description: cDNA encoding human wild-type (WT) GluN1-1a (GenBank accession numbers NP_015566, hereafter GluN1) and rat GluN1-1a (NP_058706.1) were synthesized and subcloned into pGEMHE plasmid; some experiments used the rat splice variant GluN1-4a (NP_001257531.1). Human GluN3A (NP_597702.2) and rat GluN3B (NP_579842.2) were synthesized and subcloned into SP6 plasmids. For most experiments, human GluN1 was co-expressed with human GluN3A, except for mutagenesis experiments where rat GluN1 was co-expressed with human GluN3A. Rat GluN1-4a was always expressed with rat GluN3B.
# Defolliculated Xenopus laevis oocytes (stage V-VI) were obtained from Ecocyte BioScience (Austin, Texas), or prepared from commercially available Xenopus ovaries (Xenopus 1, Dexter, MI) as previously described (Hansen, et al., Mol. Pharmacol., 2013). A Drummond Nanoject II (Broomall, PA) was used to inject oocytes with cRNAs encoding GluN1 and GluN3 at a 1:3 ratio in RNase-free water. The cRNA was diluted as needed to give responses with amplitudes ranging between 200-2000 nA (0.2-10 ng total cRNA). Following cRNA injection, the oocytes were stored at 15-19° C. in Barth's solution that contained (in mM) 88 NaCl, 2.4 NaHCO3, 1 KCl, 0.33 Ca(NO3)2, 0.41 CaCl2), 0.82 MgSO4, and 5 Tris-HCl (pH 7.4 with NaOH), supplemented with 1 μg/ml streptomycin (Invitrogen, Carlsbad, CA) and 100 μg/ml gentamicin (Fisher Scientific, Pittsburgh, PA). Recordings were performed 2-5 days following cRNA microinjection at room temperature (23° C.) using a two-electrode voltage-clamp amplifier (OC725, Warner Instrument, Hamilton, CT). The signal was low-pass filtered at 10-20 Hz (4-pole, −3 dB Bessel) and digitized at the Nyquist rate using PCI-6025E or USB-6212 BNC data acquisition boards (National Instruments, Austin, TX) using EasyOocyte (http://www.easyoocyte.io/). Oocytes were placed in a custom-made chamber and continuously perfused (2.5 ml/min) with oocyte recording solution containing (in mM) 90 NaCl, 1 KCl, 10 HEPES, 0.5-1.0 BaCl2, and 0.01 EDTA (pH 7.4 with NaOH). Solutions were applied by gravity, and solution exchange was controlled through a rotary valve (Hamilton, Reno, NV). Recording electrodes were filled with 0.3-3.0 M KCl, and current responses were recorded at a holding potential of −40 mV.
# Response (%)=(100−minimum)/(1+([concentration]/IC50)^nH)+minimum (2) • where nH is the Hill slope, IC50 is the concentration that produces a half-maximal effect, and minimum is the degree of residual inhibition at a saturating concentration of the negative allosteric modulator.
# The afore-referenced compounds were screened in the same assay as EU1180-438 to determine their effects on hGluN1^FA,TL/hGluN3A receptors. Selected compounds that inhibited by more than 20% at the concentration at which they were initially evaluated (either 10 or 30 μM) were analyzed further, and a dose-response curve was generated to determine their IC50 values.
# T1 sequence (Q8TCU5 24-1115, other chains not shown): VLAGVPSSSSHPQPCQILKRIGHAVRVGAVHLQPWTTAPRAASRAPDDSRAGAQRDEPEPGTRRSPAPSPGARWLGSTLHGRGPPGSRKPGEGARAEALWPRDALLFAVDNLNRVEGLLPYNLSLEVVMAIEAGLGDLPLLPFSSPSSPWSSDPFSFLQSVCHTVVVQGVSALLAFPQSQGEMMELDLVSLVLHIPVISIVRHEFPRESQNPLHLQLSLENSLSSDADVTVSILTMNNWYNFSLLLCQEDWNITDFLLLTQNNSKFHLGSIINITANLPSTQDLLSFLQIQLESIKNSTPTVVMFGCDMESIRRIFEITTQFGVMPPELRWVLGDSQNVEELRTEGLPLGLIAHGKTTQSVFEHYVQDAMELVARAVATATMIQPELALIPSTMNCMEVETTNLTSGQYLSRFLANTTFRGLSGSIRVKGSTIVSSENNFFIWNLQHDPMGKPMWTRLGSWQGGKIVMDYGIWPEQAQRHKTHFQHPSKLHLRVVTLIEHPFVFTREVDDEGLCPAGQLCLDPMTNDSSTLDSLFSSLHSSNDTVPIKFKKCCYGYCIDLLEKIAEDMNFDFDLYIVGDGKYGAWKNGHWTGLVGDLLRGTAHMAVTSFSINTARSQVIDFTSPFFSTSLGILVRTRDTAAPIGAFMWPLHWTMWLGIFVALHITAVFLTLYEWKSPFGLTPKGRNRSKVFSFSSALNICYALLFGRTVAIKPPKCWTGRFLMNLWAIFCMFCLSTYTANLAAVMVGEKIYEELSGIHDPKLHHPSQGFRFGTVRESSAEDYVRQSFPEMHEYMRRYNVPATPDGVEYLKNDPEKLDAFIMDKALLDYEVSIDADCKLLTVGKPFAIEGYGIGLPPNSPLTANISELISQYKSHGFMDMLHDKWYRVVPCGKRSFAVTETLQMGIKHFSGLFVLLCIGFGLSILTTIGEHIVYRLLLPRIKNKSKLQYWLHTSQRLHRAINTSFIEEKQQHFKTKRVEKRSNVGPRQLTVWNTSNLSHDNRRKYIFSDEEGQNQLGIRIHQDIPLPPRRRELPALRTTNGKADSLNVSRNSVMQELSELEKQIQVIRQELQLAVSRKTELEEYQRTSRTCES
row,Structure (SMILES),"hGluN1^FA,TL/hGluN3A (100 × Idrug/Icontrol at 30 μM drug)"
1,"COc1ccc(OCC(c2ccc(OC)cc2)N2Cc3ccc(Cl)cc3C2=O)cc1 (stereo not shown) [EU1180-516, 6-Chloro-2-(2-(4-methoxyphenoxy)-1-(4-methoxyphenyl)ethyl)isoindolin-1l-one]",44%

# Same assay, conditions: read-out: hGluN1^FA,TL/hGluN3A (100 × Idrug/Icontrol at 30 μM drug)
row,Structure (SMILES),remaining activity at 30 µM
1,"COc1ccc(C(COc2cccc(C)n2)N2Cc3ccccc3C2=O)c(F)c1 (stereo not shown) [EU1180-600, 2-(1-(2-Fluoro-4-methoxyphenyl)-2-((6-methylpyridin-2-yl)oxy)ethyl)isoindolin-1-one]",87%
2,"COc1ccc(C(COc2cccc(C)n2)N2Cc3cc(Br)ccc3C2=O)cc1 (stereo not shown) [EU1180-596, 5-Bromo-2-(1-(4-methoxyphenyl)-2-((6-methylpyridin-2-yl)oxy)ethyl)isoindolin-1-one]",92%
3,"COc1ccc(OCC(c2ccc(OC)cc2)N2Cc3cc(Br)ccc3C2=O)cc1 (stereo not shown) [EU1180-519, 5-Bromo-2-(2-(4-methoxyphenoxy)-1-(4-methoxyphenyl)ethyl)isoindolin-1-one]",90%
4,"CC(C)Oc1ccc(C(COc2ccc(C(F)(F)F)cc2)N2Cc3ccccc3C2=O)cc1 (stereo not shown) [EU1180-571, 2-(1-(4-isopropoxyphenyl)-2-(4-(trifluoromethyl)phenoxy)ethyl)isoindolin-1-one]",94%
5,"CC(C)Oc1ccc(C(COc2ccc(OC(F)(F)F)cc2)N2Cc3cc(Br)ccc3C2=O)cc1 (stereo not shown) [EU1180-554, 5-bromo-2-(1-(4-isopropoxyphenyl)-2-(4-(trifluoromethoxy)phenoxy)ethyl)isoindolin-1-one]",101%
6,"CC(C)Oc1ccc(C(COc2ccc(C(F)(F)F)cc2)N2Cc3ccc(Br)cc3C2=O)cc1 (stereo not shown) [EU1180-577, 6-bromo-2-(1-(4-isopropoxyphenyl)-2-(4-(trifluoromethyl)phenoxy)ethyl)isoindolin-1-one]",108%
7,"CC(C)Oc1ccc(C(COc2ccc(C(F)(F)F)cc2)N2Cc3cc(Cl)ccc3C2=O)cc1 (stereo not shown) [EU1180-574, 5-chloro-2-(1-(4-isopropoxyphenyl)-2-(4-(trifluoromethyl)phenoxy)ethyl)isoindolin-1-one]",91%
8,"COc1ccc(OCC(c2ccc(OC)c(OC)c2)N2Cc3ccc(Cl)cc3C2=O)cc1 (stereo not shown) [EU1180-525, 6-Chloro-2-(1-(3,4-dimethoxyphenyl)-2-(4-methoxyphenoxy)ethyl)isoindolin-1-one]",94%
9,"COc1ccc(OCC(c2ccc(OC)c(OC)c2)N2Cc3cc(Cl)ccc3C2=O)cc1 (stereo not shown) [EU1180-524, 5-Chloro-2-(1-(3,4-dimethoxyphenyl)-2-(4-methoxyphenoxy)ethyl)isoindolin-1-one]",102%
10,"COc1ccc(OCC(c2c(F)cc(OC)cc2F)N2Cc3cc(Br)ccc3C2=O)cc1 (stereo not shown) [EU1180-549, 5-Bromo-2-(1-(2,6-difluoro-4-methoxyphenyl)-2-(4-methoxyphenoxy)ethyl)isoindolin-1-one]",95%
11,"COc1ccc(OCC(c2ccc(OC)cc2F)N2Cc3ccc(Cl)cc3C2=O)cc1 (stereo not shown) [EU1180-533, 6-Chloro-2-(1-(2-fluoro-4-methoxyphenyl)-2-(4-methoxyphenoxy)ethyl)isoindolin-1-one]",49%
12,"CC(C)Oc1ccc(C(COc2ccc(OC(F)(F)F)cc2)N2Cc3ccc(Br)cc3C2=O)cc1 (stereo not shown) [EU1180-553, 6-bromo-2-(1-(4-isopropoxyphenyl)-2-(4-(trifluoromethoxy)phenoxy)ethyl)isoindolin-1-one]",101%
13,"COc1ccc(OCC(c2ccc(OC)cc2)N2Cc3cc(F)ccc3C2=O)cc1 (stereo not shown) [EU1180-521, 5-Fluoro-2-(2-(4-methoxyphenoxy)-1-(4-methoxyphenyl)ethyl)isoindolin-1-one]",60%
14,"COc1cc(F)c(C(COc2cccc(C)n2)N2Cc3cc(Cl)ccc3C2=O)c(F)c1 (stereo not shown) [EU1180-610, 5-Chloro-2-(1-(2,6-difluoro-4-methoxyphenyl)-2-((6-methylpyridin-2-yl)oxy)ethyl)isoindolin-1-one]",76%
15,"CC(C)Oc1ccc(C(COc2ccc(C(F)(F)F)cc2)N2Cc3ccc(C(F)(F)F)cc3C2=O)cc1 (stereo not shown) [EU1180-572, 2-(1-(4-isopropoxyphenyl)-2-(4-(trifluoromethyl)phenoxy)ethyl)-6-(trifluoromethyl)isoindolin-1-one]",91%
16,"COc1ccc(C(COc2cccc(C)n2)N2Cc3ccc(C(F)(F)F)cc3C2=O)cc1 (stereo not shown) [EU1180-593, 2-(1-(4-Methoxyphenyl)-2-((6-methylpyridin-2-yl)oxy)ethyl)-6-(trifluoromethyl)isoindolin-1-one]",83%
17,"COc1cc(F)c(C(COc2cccc(C)n2)N2Cc3cc(Br)ccc3C2=O)c(F)c1 (stereo not shown) [EU1180-612, 5-Bromo-2-(1-(2,6-difluoro-4-methoxyphenyl)-2-((6-methylpyridin-2-yl)oxy)ethyl)isoindolin-1-one]",79%
18,"COc1ccc(OCC(c2ccc(OC)cc2F)N2Cc3cc(F)ccc3C2=O)cc1 (stereo not shown) [EU1180-536, 5-Fluoro-2-(1-(2-fluoro-4-methoxyphenyl)-2-(4-methoxyphenoxy)ethyl)isoindolin-1-one]",80%
19,"COc1ccc(OCC(c2ccc(OC(C)C)cc2)N2Cc3ccc(F)cc3C2=O)cc1 (stereo not shown) [EU1180-560, 6-fluoro-2-(1-(4-isopropoxyphenyl)-2-(4-methoxyphenoxy)ethyl)isoindolin-1-one]",23%
20,"COc1ccc(C(COc2cccc(C)n2)N2Cc3ccc(Br)cc3C2=O)c(F)c1 (stereo not shown) [EU1180-607, 6-Bromo-2-(1-(2-fluoro-4-methoxyphenyl)-2-((6-methylpyridin-2-yl)oxy)ethyl)isoindolin-1-one]",62%
21,"COc1ccc(C(COc2cccc(C)n2)N2Cc3ccc(C(F)(F)F)cc3C2=O)c(F)c1 (stereo not shown) [EU1180-603, 2-(1-(2-Fluoro-4-methoxyphenyl)-2-((6-methylpyridin-2-yl)oxy)ethyl)-6-(trifluoromethyl)isoindolin-1-one]",84%
22,"COc1ccc(OCC(c2ccc(OC)cc2F)N2Cc3ccc(C(F)(F)F)cc3C2=O)cc1 (stereo not shown) [EU1180-531, 2-(1-(2-Fluoro-4-methoxyphenyl)-2-(4-methoxyphenoxy)ethyl)-6-(trifluoromethyl)isoindolin-1-one]",99%
23,"COc1ccc(OCC(c2c(F)cc(OC)cc2F)N2Cc3ccc(Br)cc3C2=O)cc1 (stereo not shown) [EU1180-550, 6-Bromo-2-(1-(2,6-difluoro-4-methoxyphenyl)-2-(4-methoxyphenoxy)ethyl)isoindolin-1-one]",93%
24,"COc1ccc(OCC(c2ccc(OC)cc2F)N2Cc3ccc(Br)cc3C2=O)cc1 (stereo not shown) [EU1180-535, 6-Bromo-2-(1-(2-fluoro-4-methoxyphenyl)-2-(4-methoxyphenoxy)ethyl)isoindolin-1-one]",83%
25,"CCOc1ccc(OCC(c2ccc(OC(C)C)cc2)N2Cc3ccc(Cl)cc3C2=O)cc1 (stereo not shown) [EU1180-588, 6-chloro-2-(2-(4-ethoxyphenoxy)-1-(4-isopropoxyphenyl)ethyl)isoindolin-1-one]",67%
26,"CC(C)Oc1ccc(C(COc2ccc(C(F)(F)F)cc2)N2Cc3cc(F)ccc3C2=O)cc1 (stereo not shown) [EU1180-576, 5-fluoro-2-(1-(4-isopropoxyphenyl)-2-(4-(trifluoromethyl)phenoxy)ethyl)isoindolin-1-one]",104%
27,"CC(C)Oc1ccc(C(COc2ccc(OC(F)(F)F)cc2)N2Cc3ccc(F)cc3C2=O)cc1 (stereo not shown) [EU1180-542, 6-fluoro-2-(1-(4-isopropoxyphenyl)-2-(4-(trifluoromethoxy)phenoxy)ethyl)isoindolin-1-one]",98%
